Converted amounts (≈) assume the structure as drawn. Starred links: 1 amine or outer side, 2 acyl side, 3 side chain; linkers in the order of their positions; H or OH if unused. Non-standard residues stand in square brackets, D forms with d. Residues, ends and D or L forms follow the SMILES beside them. X1 = C[C@@H]1CCO[C@H]1[C@H](C(=O)[*:2])N(C)[*:1]; d(aThr) = C[C@@H](O)[C@@H](N)C(=O)O; NMeL = CN[C@@H](CC(C)C)C(=O)O; dNMeL = CN[C@H](CC(C)C)C(=O)O; dNMeV = CN[C@@H](C(=O)O)C(C)C; dNMeA = CN[C@H](C)C(=O)O
What was measured:
[1] = target: T1, Human recombinant cyclophilin A (CypA) (Homo sapiens, UniProt P62937); assay: Protease-free PPIase assay, cyclophilin A; format: biochemical; details: human recombinant CypA, 10 °C, SUC-AAPF-pNA substrate; read-out: CypA Protease-free PPIase Assay Ki
T1 construct: purchased Sigma C3805
Procedure: (§1) Protease-Free PPIase Assay The protease-free PPIase assay measures the rate of cis to trans conversion of a peptide substrate catalyzed by the enzyme cyclophilin A or D. Addition of a cyclophilin inhibitor (e.g., a test compound) slows the catalyzed rate and a Ki value is obtained. 35 mM HEPES pH 7.8, filtered through a 0.2 μm filter. 50 μM DTT was added prior to use each day and then the buffer was stored on ice. […] Human recombinant 6-His tagged cyclophilin D (CypD), prepared by the University of Edinburgh, was used to generate CypD inhibition data. Succinimide-[…]-nitroanilide (SUC-AAPF-pNA) (from Bachem AG, L-1400), 20 mg/ml prepared in 0.5 M LiCl in trifluoroethanol. All readings were taken with an Agilent 8453 Spectrophotometer which consisted of a cuvette holder, stirrer and chiller to maintain a stirred cuvette temperature of 10.0±0.1° C. The temperature was monitored by the use of temperature probe. […] The inhibitor was diluted in 100% DMSO, and then added to the assay to a maximum final concentration of 0.5% DMSO in the assay. […] The absorbance was measured at 330 nm for 300 s or 500 s for blank runs (NOTE: the substrate was added in one quick injection and the measurements started immediately to minimize mixing errors). A first order rate equation was fitted to the absorbance data, for each concentration of inhibitor, to obtain the rate constant (the first 10 to 15 seconds were excluded, as mixing causes errors in this portion of the curve). The catalytic rate was calculated from the enzymatic rate constant minus the background rate constant. An exponential curve was generated using the catalytic rate constants versus the inhibitor concentration to obtain the Ki value for the inhibitor. The Ki value is indicative of the binding affinity between the test compound and cyclophilin A.

[2] = target: T2, Human recombinant 6-His tagged cyclophilin D (CypD) (Homo sapiens, UniProt P30405); assay: Protease-free PPIase assay, cyclophilin D; format: biochemical; details: human recombinant 6-His CypD, 10 °C, SUC-AAPF-pNA substrate; read-out: CypD Protease-free PPIase Assay Ki
T2 construct: 6-His
Procedure: as §1

calcineurin = target: T3, calcineurin (Homo sapiens, UniProt P62937+P63098+Q08209); assay: Calcineurin Phosphatase (CaN) Assay; format: biochemical; details: in the presence of CypA, 1:1 complex of inhibitor with CypA
T3 construct: purchased Enzo Life Sciences BML-AK804
From the text: Calcineurin Phosphatase (CaN) Assay
The calcineurin phosphatase assay is a means for estimating the immunosuppressive potential of a test compound. Calcineurin is a serine-threonine protein phosphatase that on activation dephosphorylates members of the nuclear factor of activated T cells (NFAT), which are important in T lymphocyte activation.
To investigate the immunosuppressive potential of exemplary compounds of Formula I, which are cyclosporin analogs, their ability to inhibit calcineurin activity was measured in the presence and absence of CypA.
The CaN assay kit used is based on a colorimetric assay for measuring calcineurin phosphatase activity, and it is commercially available (Enzo Life Sciences and Calbiochem). Calmodulin is also required for calcineurin activity, and RII phosphopeptide is used as an efficient peptide substrate for calcineurin. […] The detection of free phosphate released is based on the classic Malachite green assay.
Enzo Life Sciences CaN Assay Kit: BML-AK804
For samples ‘without CypA’, a 4-point dilution series of the inhibitor was prepared in duplicate to obtain a final assay concentration of 10, 1, 0.1 and 0.01 μM. For samples ‘with CypA’, a 7-point dilution series was prepared to obtain a 1:1 complex of the inhibitor with CypA; the inhibitor and CypA final assay concentrations of 10, 3.33, 1.11, 0.37, 0.12, 0.04, 0.014 μM were prepared.
using the half area 96 well plates supplied with the kit, 10 μl UPW was added to duplicate wells to provide the non-inhibited control. 10 μl of the inhibitor or the inhibitor/CypA complex was added to the appropriate sample wells. 25 μl of the 2× assay buffer with calmodulin (CaM) was added to all wells, then 5 μl of calcineurin phosphatase (CaN) was added to all wells (40 U per well final concentration) except duplicate ‘no calcineurin blank’ wells to which 5 μL 1× assay buffer was added. The assay plate was placed in an oven at 30° C. for 15 minutes to equilibrate to the reaction temperature. The reaction was started by the addition of 10 μl RII-peptide (0.15 mM final concentration). The reaction was allowed to proceed at 30° C. for a time period in which the reaction is linear for about 60 minutes. The reaction was then terminated by adding 100 μl of the Malachite Green reagent. The color was allowed to develop for 15-30 minutes at room temperature before the absorbance at 620 nm was measured using a plate reader (Molecular Devices—SpectraMax M5). The data were analyzed by subtracting ‘no calcineurin blank’ from all the absorbance readings and plotting the background corrected absorbances against Log10 inhibitor concentration. A sigmoidal-dose response curve was fitted to the data using GraphPad Prism Software.
It exerts its immunosuppressive activity by binding to CypA to form a complex, which then binds to calcineurin and thereby inhibits calcineurin activity.

physchem = details: 25 °C, pH 7.4, aqueous buffer, kinetic from dmso stock
Procedure: The aqueous solubility of a compound of Formula I in buffer (pH 7.8) was measured by recording the onset of precipitation of the compound as a function of increasing concentration. The onset of precipitation, if it occurred, was detected by an increase in absorbance at 650 nm.
Stock solutions of Control and Test Compounds: 10 mM in 100% DMSO.
10 mM stock solutions of control and test compounds were prepared in 100% DMSO.
Assay buffer (247.5 μl) was placed into a flat bottomed transparent 96-well plate. For blank samples, DMSO (2.5 μl) was added. For test and control samples, 2.5 μl of the appropriate DMSO dilution stocks were added to the appropriate well. All test and control compounds were performed in triplicate.
The plates were sealed with adhesive plate seal and shaken at 250 rpm at 25° C. for 18 h on a plate shaker. After incubation, the plate seals were taken off and any bubbles observed in wells removed. The plates were read on a SpectraMaxM5 with a 5 s pre-shake at 650 nm.
Data files were transferred to the appropriate worksheet and the solubility range of the compounds was calculated from the data.

T2 sequence (P30405 30-207): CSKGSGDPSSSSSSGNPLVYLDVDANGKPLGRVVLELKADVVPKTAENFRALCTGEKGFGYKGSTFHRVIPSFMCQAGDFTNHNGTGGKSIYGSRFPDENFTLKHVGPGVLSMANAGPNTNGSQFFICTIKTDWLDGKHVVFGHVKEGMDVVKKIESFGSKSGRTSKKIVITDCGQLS
T1 sequence (P62937 whole entry): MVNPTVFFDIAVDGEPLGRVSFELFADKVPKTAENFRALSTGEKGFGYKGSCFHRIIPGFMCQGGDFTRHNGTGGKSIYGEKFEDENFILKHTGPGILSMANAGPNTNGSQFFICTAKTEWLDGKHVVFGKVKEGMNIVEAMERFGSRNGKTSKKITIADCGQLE

Compound	Ki [1] [nM]	Ki [2] [nM]	IC50 (calcineurin) [nM]	solubility at 18 h (physchem) [µM]
CC[C@H]1NC(=O)[C@@H](C2OC(C)C[C@H]2C)N(C)C(=O)[C@@H](C(C)C)N(C)C(=O)[C@@H](CC(C)C)N(C)C(=O)[C@@H](CC(C)C)N(C)C(=O)[C@H](C)NC(=O)[C@@H](C)NC(=O)[C@@H](CC(C)C)N(C)C(=O)[C@@H](C(C)C)NC(=O)[C@H](CC(C)C)N(C)C(=O)[C@@H](C)N(C)C1=O (stereo partly drawn) [Compound 26, [(2S)-2-[(2R,3R)-3,5-dimethyltetrahydrofuran-2-yl]-2-(methylamino)acetic acid]^1 [(R)-methyl-Sar]^3 cyclosporin A]	275	64	> 10000	75 (≈ 90.2 µg/mL)
CC[C@H]1NC(=O)[C@@H]([C@@H]2OC(=O)N(C)C[C@H]2C)N(C)C(=O)[C@@H](C(C)C)N(C)C(=O)[C@@H](CC(C)C)N(C)C(=O)[C@@H](CC(C)C)N(C)C(=O)[C@H](C)NC(=O)[C@@H](C)NC(=O)[C@@H](CC(C)C)N(C)C(=O)[C@@H](C(C)C)NC(=O)[C@H](CC(C)C)N(C)C(=O)[C@@H](C)N(C)C1=O [Compound 22]	315	160	> 10000	> 100
CC[C@H]1NC(=O)[C@@H]([C@@H]2OCC[C@H]2C)N(C)C(=O)[C@@H](C(C)C)N(C)C(=O)[C@@H](CC(C)C)N(C)C(=O)[C@@H](CC(C)C)N(C)C(=O)[C@H](C)NC(=O)[C@@H](C)NC(=O)[C@@H](CC(C)C)N(C)C(=O)[C@@H](C(C)C)NC(=O)[C@H](CC(C)C)N(C)C(=O)CN(C)C1=O [Compound 4, [(2S)-2-(methylamino)-2-[(2R,3R)-3-methyltetrahydrofuran-2-yl]acetic acid]^1 cyclosporin A]	509	920	> 10000	
CC[C@H]1NC(=O)[C@@H]([C@@H]2OCCCC[C@H]2C)N(C)C(=O)[C@@H](C(C)C)N(C)C(=O)[C@@H](CC(C)C)N(C)C(=O)[C@@H](CC(C)C)N(C)C(=O)[C@H](C)NC(=O)[C@@H](C)NC(=O)[C@@H](CC(C)C)N(C)C(=O)[C@@H](C(C)C)NC(=O)[C@H](CC(C)C)N(C)C(=O)CN(C)C1=O [Compound 16, [(2S)-2-(methylamino)-2-[(2R,3R)-3-methyloxepan-2-yl]acetic acid]^1 cyclosporin A]	386	560	6670	
CC(C)C[C@@H]1C(=O)N(C)[C@H](CC(C)C)C(=O)N(C)[C@H](C(C)C)C(=O)N(C)[C@H]([C@@H]2OC(O)C[C@H]2C)C(=O)N[C@H](C(C)C)C(=O)N(C)CC(=O)N(C)[C@@H](CC(C)C)C(=O)N[C@H](C(C)C)C(=O)N(C)[C@H](CC(C)C)C(=O)N[C@H](C)C(=O)N[C@@H](C)C(=O)N1C (stereo partly drawn) [Compound 13, [(2S)-2-[(2R,3R)-5-Hydroxy-3-methyl-tetrahydrofuran-2-yl]-2-(methylamino)acetic acid]^1 cyclosporin D]	414	840	> 10000	
CC[C@H]1NC(=O)[C@@H]([C@@H]2OCN(C)C[C@H]2C)N(C)C(=O)[C@@H](C(C)C)N(C)C(=O)[C@@H](CC(C)C)N(C)C(=O)[C@@H](CC(C)C)N(C)C(=O)[C@H](C)NC(=O)[C@@H](C)NC(=O)[C@@H](CC(C)C)N(C)C(=O)[C@@H](C(C)C)NC(=O)[C@H](CC(C)C)N(C)C(=O)CN(C)C1=O [Compound 23, [(2R)-2-[(5R,6R)-3,5-dimethyl-1,3-oxazinan-6-yl]-2-(methylamino)acetic acid]^1 cyclosporin A]	754	280	> 10000	
[(2R)-2-[(5R,6R)-3,5-dimethyl-2-oxo-1,3-oxazinan-6-yl]-2-(methylamino)acetic acid]^1 cyclosporin A [Compound 21]	304	42	8160	

Further lines, results first:

Ki [1] [nM]	Ki [2] [nM]	IC50 (calcineurin) [nM]	solubility at 18 h (physchem) [µM]	Compound
95	4.4	> 10000	> 100	CC[C@H]1NC(=O)[C@@H]([C@@H]2OCC[C@H]2C)N(C)C(=O)[C@@H](C(C)C)N(C)C(=O)[C@@H](CC(C)C)N(C)C(=O)[C@@H](CC(C)C)N(C)C(=O)[C@H](C)NC(=O)[C@@H](C)NC(=O)[C@@H](CC(C)C)N(C)C(=O)[C@@H](C(C)C)NC(=O)[C@H](CC(C)C)N(C)C(=O)[C@@H](C)N(C)C1=O [Compound 3, [(2S)-2-(methylamino)-2-[(2R,3R)-3-methyltetrahydrofuran-2-yl]acetic acid]^1 [(R)-methyl-Sar]^3 cyclosporin A]
105	85	7740		CC[C@H]1NC(=O)[C@@H]([C@@H]2OCCCC[C@H]2C)N(C)C(=O)[C@@H](C(C)C)N(C)C(=O)[C@@H](CC(C)C)N(C)C(=O)[C@@H](CC(C)C)N(C)C(=O)[C@H](C)NC(=O)[C@@H](C)NC(=O)[C@@H](CC(C)C)N(C)C(=O)[C@@H](C(C)C)NC(=O)[C@H](CC(C)C)N(C)C(=O)[C@@H](C)N(C)C1=O [Compound 17, [(2S)-2-(methylamino)-2-[(2R,3R)-3-methyloxepan-2-yl]acetic acid]^1 [(R)-methyl-Sar]^3 cyclosporin A]
49	12	> 10000		CC[C@H]1NC(=O)[C@@H]([C@@H]2OC(O)C[C@H]2C)N(C)C(=O)[C@@H](C(C)C)N(C)C(=O)[C@@H](CC(C)C)N(C)C(=O)[C@@H](CC(C)C)N(C)C(=O)[C@H](C)NC(=O)[C@@H](C)NC(=O)[C@@H](CC(C)C)N(C)C(=O)[C@@H](C(C)C)NC(=O)[C@H](CC(C)C)N(C)C(=O)[C@@H](C)N(C)C1=O (stereo partly drawn) [Compound 12, [(2R)-2-[(2R,3R)-5-hydroxy-3-methyl-tetrahydrofuran-2-yl]-2-(methylamino)acetic acid]^1[(R)-methyl-Sar]^3 cyclosporin A]
270	18	> 10000		CC(C)C[C@@H]1C(=O)N(C)[C@H](CC(C)C)C(=O)N(C)[C@H](C(C)C)C(=O)N(C)[C@H]([C@@H]2OCC[C@H]2C)C(=O)N[C@H]([C@@H](C)O)C(=O)N(C)[C@H](C)C(=O)N(C)[C@@H](CC(C)C)C(=O)N[C@H](C(C)C)C(=O)N(C)[C@H](CC(C)C)C(=O)N[C@H](C)C(=O)N[C@@H](C)C(=O)N1C [Compound 11, [(2S)-2-(methylamino)-2-[(2R,3R)-3-methyltetrahydrofuran-2-yl]acetic acid]^1 [(R)-methyl-Sar]^3 cyclosporin C] (cyclo(A[dNMeL][dNMeL][dNMeV][X1][d(aThr)][dNMeA][NMeL][dV][dNMeL][dA]))
38	46	5290		CC[C@H]1NC(=O)[C@@H]([C@@H]2OCCC[C@H]2C)N(C)C(=O)[C@@H](C(C)C)N(C)C(=O)[C@@H](CC(C)C)N(C)C(=O)[C@@H](CC(C)C)N(C)C(=O)[C@H](C)NC(=O)[C@@H](C)NC(=O)[C@@H](CC(C)C)N(C)C(=O)[C@@H](C(C)C)NC(=O)[C@H](CC(C)C)N(C)C(=O)[C@@H](C)N(C)C1=O [Compound 15, [(2S)-2-(methylamino)-2-[(2R,3R)-3-methyltetrahydropyran-2-yl]acetic acid]^1 [(R)-methyl-Sar]^3 cyclosporin A]

— patent US9914755B2, “Cyclosporin derivatives wherein the MeBmt sidechain has been cyclized” (Allergan, Inc., priority 2015, dated 2018)
